Laboratory results from paper PMC7859335, “Discovery of Diaryl Ether Substituted Tetrahydrophthalazinones as TbrPDEB1 Inhibitors Following Structure-Based Virtual Screening” (Frontiers in Chemistry, 2021).
Where two headings read alike, the source gives them in different places.

What was measured:
[1] = system: T.b. brucei Squib-427 strain; experiment: Antitrypanosomal phenotypic cellular assay (resazurin); type: cell-based; conditions: Trypanosoma brucei; in vitro, 72 h, mean ± S.E.M.
Method: (§1) The phenotypic cellular assays were conducted as previously reported by Blaazer et al. (Blaazer et al., [2018]).
For the antitrypanosomal assay, T.b. brucei Squib-427 strain (suramin-sensitive) was cultured at 37°C and 5% CO2 in HMI-9 medium supplemented with 10% fetal calf serum (FCS). Approximately 1.5 × 10^4 trypomastigotes were added to each well and parasite growth was assessed after 72 h at 37°C by adding resazurin. Viability was assessed fluorimetrically 24 h after addition of resazurin. Fluorescence was measured (excitation 550 nm, emission 590 nm) and the results were expressed as percentage reduction in viability compared to control.

[2] = Cellular cytotoxicity assay (resazurin); type: cell-based; conditions: human
Method: as §1
For the cellular cytotoxicity assay, MRC-5 SV2 cells, originally from a human diploid lung cell line, were cultivated in MEM supplemented with L-glutamine (20 mM), 16.5 mM sodium hydrogen carbonate and 5% FCS. For the assay, 10^4 MRC-5 cells/well were seeded onto the test plates containing the pre-diluted sample and incubated at 37°C and 5% CO2 for 72 h. Cell viability was assessed fluorimetrically 4 h after the addition of resazurin. Fluorescence was measured (excitation 550 nm, emission 590 nm) and the results were expressed as percentage reduction in cell viability compared to controls.

[3] = target: T1, TbrPDEB1 (Trypanosoma brucei, UniProt Q8WQX9); experiment: TbrPDEB1 catalytic domain phosphodiesterase activity assay (PDELight HTS cAMP kit); type: biochemical; conditions: for Ki: full dose-response, mean ± S.E.M.; for inhibition at 10 µM / TbrPDEB1 (% inh.): single point assay at 10 μM inhibitor; for inhibition at 10 µM: read-out: TbrPDEB1 (% inh.)
T1 construct: The TbrPDEB1 catalytic domain phosphodiesterase activity assays were conducted based on a method reported by Sijm et al
T1 sequence (Q8WQX9 565-918 limits assumed): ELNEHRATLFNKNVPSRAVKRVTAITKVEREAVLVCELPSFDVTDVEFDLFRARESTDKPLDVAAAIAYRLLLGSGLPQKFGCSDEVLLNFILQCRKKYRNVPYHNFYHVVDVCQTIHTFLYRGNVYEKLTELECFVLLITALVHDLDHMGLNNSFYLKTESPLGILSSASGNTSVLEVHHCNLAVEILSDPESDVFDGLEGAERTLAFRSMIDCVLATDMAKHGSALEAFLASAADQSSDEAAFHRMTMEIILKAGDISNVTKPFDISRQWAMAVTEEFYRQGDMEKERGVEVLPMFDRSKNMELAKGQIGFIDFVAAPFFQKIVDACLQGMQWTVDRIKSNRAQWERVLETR
Method: The TbrPDEB1 catalytic domain phosphodiesterase activity assays were conducted based on a method reported by Sijm et al. ([2019]) with minor adaptations (Sijm et al., [2019]). The PDELight™ HTS cAMP phosphodiesterase Kit (Lonza, Walkersville, USA) was performed at 25°C in non-binding, low volume 384-well plates (Corning, Kennebunk, ME, USA). […] Single concentration measurements were made at 10 μM inhibitor concentration (triplo measurements/assay, n = 2). Dose-response curves were made in the range 100 μM−10 pM (triplo measurements/assay, n = 3). Compounds were diluted in DMSO (final in-test concentration 1%). Inhibitor dilutions (2.5 μL) were transferred to the 384-well plates, 2.5 μL of PDE in stimulation buffer was added and mixed, 5 μL of cAMP (at 2 × Km up to 20 μM) added and the assay mixture was incubated for 20 min at 300 rpm. […] Then, 5 μL of Lonza Detection reagent (diluted to 80% with reaction buffer) was added and the reaction incubated for 10 min at 300 rpm. Luminescence was read with a Victor3 luminometer using a 0.1 s/well program.
The Ki values of the inhibitors analyzed are represented as the mean of at least three independent experiments with the associated standard error of the mean (S.E.M.).

[4] = system: TbrPDEB2; design: method as in earlier work; conditions: ref De Koning et al., 2012, Orrling et al., Veerman et al., 2016; cited from earlier work
[5] = system: T.b. brucei Squib-427 strain; design: method as in Blaazer et al. (2018); conditions: in vitro; ref Blaazer et al. (2018); cited from earlier work
[6] = system: MRC-5 SV2 cells; design: method as in Blaazer et al. (2018); conditions: ref Blaazer et al. (2018); cited from earlier work
[7] = target: T1, TbrPDEB1; conditions: ref Blaazer et al. (2018); cited from earlier work
[8] = system: hPDE4B1; design: method as in Blaazer et al. (2018); conditions: ref Blaazer et al. (2018), cited from earlier work

| SMILES | IC50 [1] | CC50 at 72 h [2] | Ki [3] | inhibition at 10 µM [3] | also measured |
| --- | --- | --- | --- | --- | --- |
| COC(=O)c1cnc(Oc2cc(C3=NN(C(C)C)C(=O)[C@@H]4CC=CC[C@H]34)ccc2OC)cn1 (relative stereo) [2d, Methyl 5-(5-(cis-3-isopropyl-4-oxo-3,4,4a,5,8,8a-hexahydrophthalazin-1-yl)-2-methoxyphenoxy)pyrazine-2-carboxylate] | 16 ± 10 µM | > 64 µM | 0.6 ± 0.2 µM | ~50% |  |
| COc1ccc(C2=NN(C(C)C)C(=O)[C@H]3CC=CC[C@@H]23)cc1Oc1ccc(Cn2ccnc2)cn1 (relative stereo) [2h, cis-4-(3-((5-((1H-Imidazol-1-yl)methyl)pyridin-2-yl)oxy)-4-methoxyphenyl)-2-isopropyl-4a,5,8,8a-tetrahydrophthalazin-1(2H)-one] | 7.9 ± 8 µM | 31 ± 8 µM | 1.3 ± 0.2 µM | ~50% |  |
| COC(=O)c1ccc(Oc2cc(C3=NN(C(C)C)C(=O)[C@@H]4CC=CC[C@H]34)ccc2OC)nc1 (relative stereo) [3c, Methyl 6-(5-(cis-3-isopropyl-4-oxo-3,4,4a,5,8,8a-hexahydrophthalazin-1-yl)-2-methoxyphenoxy)nicotinate] | 7.9 ± 8 µM | > 64 µM | 0.8 ± 0.2 µM | ≥ 50% |  |
| COc1ccc(C2=NN(C(C)C)C(=O)[C@@H]3CC=CC[C@H]23)cc1Oc1cccc(C(N)=O)n1 (relative stereo) [3l, 6-(5-(cis-3-Isopropyl-4-oxo-3,4,4a,5,8,8a-hexahydrophthalazin-1-yl)-2-methoxyphenoxy)picolinamide] | 16 ± 10 µM | > 64 µM | 0.8 ± 0.2 µM | ≥ 50% |  |
| CCCCNC(=O)c1cccc(Oc2cc(C3=NN(C(C)C)C(=O)[C@@H]4CC=CC[C@H]34)ccc2OC)n1 (relative stereo) [3s, N-Butyl-6-(5-(cis-3-isopropyl-4-oxo-3,4,4a,5,8,8a-hexahydrophthalazin-1-yl)-2-methoxyphenoxy)picolinamide] | > 64 µM | > 64 µM | 1.3 ± 0.3 µM | > 50% |  |
| COc1ccc(C2=NN(C(C)C)C(=O)[C@@H]3CC=CC[C@H]23)cc1Oc1cc(C(=O)NCc2ccco2)ccn1 (relative stereo) [3u, N-(Furan-2-ylmethyl)-2-(5-(cis-3-isopropyl-4-oxo-3,4,4a,5,8,8a-hexahydrophthalazin-1-yl)-2-methoxyphenoxy)isonicotinamide] |  |  |  |  | TbrPDEB1 (% inh.) [3]: No inhibition |
| COc1ccc(C2=NN(C(C)C)C(=O)[C@@H]3CC=CC[C@H]23)cc1Oc1ccc(C(=O)NCc2ccco2)cn1 (relative stereo) [3v, N-(Furan-2-ylmethyl)-6-(5-(cis-3-isopropyl-4-oxo-3,4,4a,5,8,8a-hexahydrophthalazin-1-yl)-2-methoxyphenoxy)nicotinamide] |  |  |  |  | TbrPDEB1 (% inh.) [3]: No inhibition |
| COc1ccc(C2=NN(C(C)C)C(=O)[C@@H]3CC=CC[C@H]23)cc1Oc1cccc(C(=O)NCc2ccco2)n1 (relative stereo) [3w, N-(Furan-2-ylmethyl)-6-(5-(cis-3-isopropyl-4-oxo-3,4,4a,5,8,8a-hexahydrophthalazin-1-yl)-2-methoxyphenoxy)picolinamide] | 25 ± 20 µM | > 64 µM | 1 ± 0.2 µM | > 50% |  |
| COc1ccc(C2=NN(C3CCCCCC3)C(=O)[C@@H]3CC=CC[C@H]23)cc1OCCCCOc1ccc(-c2nn[nH]n2)cc1 [NPD-001] |  |  |  |  | IC50 [4]: 0.0124 µM |
| COc1ccc(C2=NN(C(C)C)C(=O)C3CC=CCC23)cc1-c1ccc(C(=O)NCC(N)=O)cc1 (stereo not drawn) [compound 1] |  |  |  |  | IC50 [5]: 6.3 µM; CC50 [6]: 35 µM; Ki [7]: 0.1 µM; selectivity for TbrPDEB1 over hPDE4 ([8]; from Ki values): more than 10 fold; Ki ([8]; hPDE4B1 in Figure 1, read-out: hPDE4 Ki): 1.9 µM |
| Cc1ccc(C(=O)Nc2ccc(S(=O)(=O)O)c3cc(S(=O)(=O)O)cc(S(=O)(=O)O)c23)cc1NC(=O)c1cccc(NC(=O)Nc2cccc(C(=O)Nc3cc(C(=O)Nc4ccc(S(=O)(=O)O)c5cc(S(=O)(=O)O)cc(S(=O)(=O)O)c45)ccc3C)c2)c1 [suramin, reference compound] | 0.04 ± 0.02 µM |  |  |  |  |
